Measured values: paper PMC10103840 (Frontiers in Pharmacology, 2023)
Values joined by “and” are separate entries in the source; they are usually repeats but may differ in a detail not shown here. Equal values may be shown once.

Experiments:
BeWo b30 cells = experiment: in vitro; conditions: human, 60 min, 5 μM
Procedure: (§1) BeWo b30 choriocarcinoma cells were obtained from Dr. Tina Buerki-Thurnherr (Empa, St. Gallen, Switzerland), with permission from Dr. Alan L. Schwartz (Washington University School of Medicine, St. Louis MO, USA), and were cultivated in F-12 K Nut Mix supplemented with 10% heat inactivated FBS, antibiotics (100 U/mL penicillin, 100 µg/mL […]), and 2 mM L-glutamine (all from Gibco). The cells were cultivated in a humidified incubator at 37°C and 5% CO2 atmosphere.
(§2) BeWo b30 cells were cultured on Transwell® polycarbonate membrane inserts (24-well format; 0.4 μm pore size, 0.33 cm^2 cell growth area, 200 μL apical volume, 1′000 μL basolateral volume; Corning, Sigma-Aldrich) at a density of 60′000 cells/well. These inserts were then cultivated in a cellZscope (nanoAnalytics) at 37°C/5% CO2. Cell culture medium was replaced every 2 days up to 11 days to find the best possible conditions.
(§3) BeWo b30 cells were cultured in transparent 24-well plates under the same conditions as mentioned above and transferred to the cellZscope® at day 8 to record TER and Ccl values. After 24 h (day 9) and when a TER of 30–60 Ωcm^2 was reached and Ccl was between 0.5 and 5.0 μF/cm^2, the permeability assay was initiated by adding valerenic acid (5 μM; in HBSS with 4% BSA) to the apical compartment, while the basolateral compartment contained 1′000 μL of HBSS only. […] Samples (150 μL apical, 800 μL basolateral) were collected at each time point (0, 15, 30, 60 min; one insert per time point). After 60 min, a part of the inserts was transferred back to the cellZscope® to monitor TER and Ccl values during another 24 h. The cells grown on the other part of the inserts were quickly washed with 200 μL of cold HBSS and then lysed with 700 μL acetonitrile (100 μL apical, 600 μL basolateral) for 40 min on an orbital shaker (450 rpm, room temperature) to determine the test substance cell contents.
(§4) Apparent permeability coefficients (Papp) were calculated according to the following Eq. 1: Papp cm/s=∆Q/∆t/ACA0 (1) where ΔQ/Δt is the rate of amount transported to the receiver compartment, A is the membrane surface area (0.33 cm^2), and C A0 is the initial concentration in the apical compartment.
(§5) The clearance values were calculated according to the following Eq. 2 ([Neuhaus et al., 2008]): Clearance μL=CBnVB/CA−VB/VA∙∑CBn−1 (2) where C Bn and V B are the concentration and volume in the basolateral compartment at a specific timepoint (n), respectively; C A and VA are the concentration and volume in the apical compartment, respectively, and C Bn-1 is the total amount of substance found in the basolateral compartment up to the previous timepoint (n-1).
(§6) Recovery (mass balance) of each compound was calculated according to the following Eq. 3: Recovery %=CAfVA+CBfVB+CCfVC/CA0VA∙100 (3) where C Af , C Bf and C Cf are the final compound concentrations in apical, basolateral, and cellular compartments, respectively; C A0 is the initial concentration in the apical compartment, and V A , V B and V C are the volumes in the respective compartments.
(§7) For valerenic acid, 150 µL of the IS in MeOH were added to 50 µL of sample, and the mixture centrifuged for 20 min at 13′200 rpm/16′100 rcf at 10°C (Centrifuge 5415R, Eppendorf). An aliquot (50 µL) of the supernatant was collected and transferred into HPLC vials. Vials were centrifuged for additional 20 min prior to U(H)PLC-MS/MS analysis in full loop mode (2 µL).

in vitro [1] = conditions: human
Procedure: as §1, §2, §3, §4, §5, §6, §7

[2] = 60 min, 5 μM
in vitro [3] = conditions: human, pH 7.2
[4] = System adherence test (empty perfusion chamber, maternal circuit only); assay type: in vitro ADME; conditions: % of initial concentration, 5 μM in PM, no placental tissue, 240 min, n = 3
Procedure: The dissolution and adherence of the compounds to the perfusion equipment and to the tubing system was assessed before starting perfusions with human placentae. […] The compounds were directly dissolved in PM at a final concentration of 5 μM (100 mL reservoir) and individually tested in three independent experiments (n = 3).

placental tissue [5] = system: placental tissue
Procedure: The stability of volumes in each reservoir ensured the integrity of the circuits and served for the detection of fetal-maternal (FM) leaks (≤4 mL/h). Throughout the perfusion additional quality control measures included a physiological pH-range (7.2 ± 0.1) and a controlled fetal perfusion pressure (≤ 70 mmHg). Samples were taken at defined timepoints over a 240 min period, immediately centrifuged, and stored in glass micro-inserts (VWR) at −80°C for bioanalytical analysis. A blood gas analysis (pH, pO2, pCO2, glucose, lactate; ABL800 FLEX) of fetal and maternal samples was performed to ensure viability and metabolic activity of placental tissue during perfusion. The production of the placental hormones beta-human chorionic gonadotropin (β-hCG) and leptin was monitored by standard ELISA to assess tissue functionality ex vivo [see ([Spiess et al., 2022a]) and references therein]. For β-hCG, flat-bottom microplates were coated with rabbit polyclonal anti-hCG antibody (Agilent Dako) at a 1:1′000 dilution and the mouse monoclonal anti-hCG (abcam; 1:5′000) served as secondary antibody. The peptide hormone hCG (Lucerna-Chem) was used as reference standard; standard final concentrations of between 100 mU/mL and 2.5 mU/mL were prepared by serial dilution in seven steps and used in each plate. The goat anti-mouse-IgG-horseradish peroxidase conjugate (abcam) antibody was used at a 1:5′000 dilution. The substrate consisted of O-phenylenediamine dihydrochloride. […] For leptin, microtiter plates were coated with mouse monoclonal anti-human leptin/OB (R&D Systems; 1:250). The second antibody was biotinylated monoclonal mouse anti-human leptin/OB (R&D Systems), used at a dilution of 1:1′000. The standard was recombinant human leptin (R&D Systems); standard final concentrations of between 2′000 pg/mL and 15.6 pg/mL were prepared by serial 1:2 dilution in seven steps and used in each plate. […] The conjugate streptavidin-horseradish peroxidase (Southern Biotechnology Associates, 1:4′000) was added and the plate incubated for 60 min. For the development, ready-to-use tetramethylbenzidine substrate solution (Thermo Fischer) was used.
Concentrations in the placental perfusion profiles (Figure 2) and system adherence tests (Figure 4) were expressed as a percentage (%) of the maternal concentration at the beginning of the perfusion, whereby the maternal concentration, measured in the maternal reservoir, was adjusted to the total volume of the full maternal circuit (maternal reservoir and dead volume of the system). The FM concentration ratio (FM ratio; Figure 3) was calculated for each timepoint and plotted against the perfusion time (min). The final recovery (%) is the sum of the amounts of study compound present in both perfusates at the end of a perfusion, and the sample removed during the experiment. Glucose consumption and lactate production are presented as the sum of changes (from the beginning to the end of perfusion) in total content (μmol) in both circuits, normalized by total perfusion time (min) and weight (g) of perfused cotyledon. […]
Multiple group comparisons were performed for the glucose consumption, lactate production, β-hCG and leptin production using the non-parametric Mann–Whitney U with GraphPad Prism (version 9.3.1 for macOS; GraphPad Software). […] Data are expressed as mean ± SD of three to four independent experiments.

[6] = Transwell control experiments across cell-free inserts; conditions: data not shown
[7] = Stability assay in PBS, perfusion medium and placental homogenates; assay type: in vitro ADME, human
Procedure: In short, after spiking the various matrices with the study compounds, samples were either processed immediately for U(H)PLC-MS/MS analysis (C0), or kept at 4°C/37°C on an orbital shaker (600 rpm) for 360 min before processing for U(H)PLC-MS/MS analysis. Samples were processed via solid phase extraction or protein precipitation prior to analysis.

BeWo cells = conditions: ref Spiess et al., 2022b; cited from earlier work
placental tissue [8] = experiment: Histopathological evaluation of perfused placentae; set-up: species or system human
Procedure: Immediately after perfusion the placentae were fixed in 4% paraformaldehyde for at least 24 h. Tissue samples from representative placental tissue sections, each from perfused, non-perfused, and transitional area were prepared to perform a pathological examination. For this purpose, the tissue was embedded in paraffin, cut (∅ 2-3 µm), and stained (standard hematoxylin-eosin stain, Braun-Brenn modified Gram stain) according to the standards of routine histopathological diagnosis of the Department of Pathology and Molecular Pathology (University Hospital of Zurich). […] The blood void and width of the intervillous space and fetal blood vessels in the chorionic villi provided information about the quality of perfusion, and particular attention was paid to the presence of intravascular thrombi. General signs of degeneration, such as vacuolization of the cytotrophoblast, villous vascular endothelium viability, and formation of hydropic villous changes compared with non-perfused tissue indicated whether tissue damage might have occurred during perfusion. Microscopic effects and placental tissue damage in the perfused area were expressed in relative amounts (%) to the non-perfused tissue.

[9] = human volunteers, ref Jackson et al., 2014; cited from earlier work
[10] = non-perfused area of same placenta

## Cc1cc(=O)n(-c2ccccc2)n1C [Antipyrine, antipyrine, reference compound]
BeWo b30 cells
  Clearance across BeWo b30 cell layer: 35.5 µL
In vitro [1]
  Papp at 60 min, 5 μM: 28 ×10⁻⁶ cm/s
  recovery at 60 min, 5 μM: 81.9%
[2]
  Clearance across cell-free insert: 33.5 µL
Human placental barrier; human, 5 μM, pH 7.2
  Sampling (% found): 21.8 ± 1.3%
  Time to equilibrium between fetal and maternal compartment: 120 min
  Time to equilibrium between fetal and maternal concentrations (FM ratio): 90 min
Human placental barrier; human, 90 min, 5 μM, pH 7.2
  FM ratio at 90 min: 1.03
Human placental barrier; human, 120 min, 5 μM, pH 7.2
  FM ratio at 120 min: 0.98
Human placental barrier; human, 180 min, 5 μM, pH 7.2
  FM ratio at 180 min: 1.05
Human placental barrier; human, 240 min, 5 μM, pH 7.2
  FM ratio at 240 min: 0.92
In vitro [3]
  recovery at 240 min, 5 μM: 79.2%
[4]
  Compound lost / adhering to the perfusion equipment: −2.2% and −2.2% ± 7.0%
Placental tissue [5]
  Lactate production: 0.27 µmol/g/min
  Leptin production: 2.26 ng/min
  Total glucose consumption: 0.39 µmol/g/min
  β-hCG production: 1.44 U/min

## Cc1cc(O)c2c(=O)c3c(O)cc(O)c4c5c(O)cc(O)c6c(=O)c7c(O)cc(C)c8c1c2c(c34)c(c78)c65 [Hypericin, hypericin]
[6]
  Passage across cell-free inserts (in words): did not cross the cell-free inserts to a sufficient extent
[7]; 360 min, 4°C and 37°C
  Stability in PBS compared to PM (in words): less stable
[7]; human, tissue homogenate, 6 h
  Remaining in placental homogenate, Donor 1: 101.0%
  Remaining in placental homogenate, Donor 2: 82.7%
  Remaining in placental homogenate, Donor 3: 93.7%
Human placental barrier; 240 min perfusion, 5 μM maternal
  Transplacental transfer (in words): did not cross the human placental barrier
Human placental barrier; human, 240 min, 5 μM, pH 7.2
  Concentration in the maternal compartment: approximately 46 % of initial concentration
Human placental barrier; maternal perfusate after 240 min, % of amount in maternal sample at beginning
  M perfusate (% found): 36.7%
In vitro [3]
  recovery at 240 min, 5 μM: 54%
BeWo cells
  Concentration lowering the viability of placental cells: 1000 nM
  Concentration with genotoxic effects: 10000 nM
  Concentration with increased apoptosis / apoptotic effects: 1000 nM
Placental tissue [8]
  Global placental pathology: Else: CCB and N
Placental tissue [8]; after perfusion
  Extravasations into villous stroma (in words): no extravasations into villous stroma
  Ruptures of villous vessels (in words): no ruptures of villous vessels
Placental tissue [8]; [10]
  Hydropic changes in non-perfused: 5% and 0%
  Intervillous spaces without blood in non-perfused: 40% and 80%
  Vacuolated trophoblast in villi: in non-perfused too?: 0%
Placental tissue [8]; perfused and non-perfused
  Thrombi in vessels of stem villi (in words): no thrombi detectable
Placental tissue [8]; perfused area
  Intervillous spaces without blood: 90% and 95%
Placental tissue [8]; perfused area, individual experiments
  Emptiness of villous vessels: 90% and 80% and 85%
[9]
  Plasma concentration: 2.2 ng/mL and 4.36 nM
[4]
  Compound lost / adhering to the perfusion equipment: 3.8% and 3.8% ± 13.1%
Placental tissue [5]; 5 μM, 240 min perfusion, vs antipyrine control perfusions
  Effect on β-hCG and leptin production (in words): neither hyperforin, hypericin, nor valerenic acid inhibited their production in a statistically significant manner
